Where “and” joins values, the source holds several entries; their conditions need not be identical. Identical values can stand only once. Like-named read-outs stand apart in the source and are kept apart here.
Key:
[1] = system: acutely dissociated and purified rat OPCs; experiment: Acute OL differentiation assay (MBP expression/cell, immunofluorescent image quantification); assay type: cell-based; conditions: for activation at 2 µM / activation at 10 µM / activation at 0.08 µM / activation at 0.4 µM: Rattus norvegicus
Method in brief: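 Oligodendrocyte precursor cells were enriched from P6-P7 Sprague–Dawley rat brains by immunopanning (RAN-2 and GalC depletion, O4 selection), plated at 5000 cells/well in serum-free, mitogen-free differentiation media on PDL/laminin 96-well view plates, centrifuged at 200×g, and pre-incubated 1–2 h before test compounds were added in quadruplicate. On DIV4, cells were fixed, stained for MBP and DAPI, imaged automatically, and MBP expression per cell was quantified.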

expanded OPCs = experiment: cells; conditions: for viability at 0.1 µM / viability at 1 µM / viability at 10 µM: Rattus norvegicus, 72 h
Method in brief: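 Expanded OPCs seeded at 10,000 cells/well in differentiation media, then exposed to NCC library compounds at 10, 1 and 0.1 µM (quadruplicate, 0.1% DMSO) for three days. Viability read as alamarBlue fluorescence (560/590 nm) after 4 h at 37 °C; tunicamycin 5 ng/ml served as toxicity control.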

[2] = test compound at 2 uM, NCC library screen, sheet "All OLga data", relative to quetiapine, read-out: 2 uM (% Quet)
[3] = test compound at 10 uM, NCC library screen, sheet "All OLga data", relative to quetiapine, read-out: 10 uM (% Quet)
[4] = alamarBlue viability of expanded OPCs, compound at 0.1 µM, relative to DMSO control
[5] = alamarBlue viability of expanded OPCs, compound at 1 µM, relative to DMSO control
[6] = alamarBlue viability of expanded OPCs, compound at 10 µM, relative to DMSO control
[7] = 2 uM test compound, relative to quetiapine, sheet "All OLga data", read-out: OL differentiation, 2 uM (% Quet)
[8] = 10 uM test compound, relative to quetiapine, sheet "All OLga data", read-out: OL differentiation, 10 uM (% Quet)
[9] = read-out: 0.1 µM (% DMSO), alamarBlue viability of expanded OPCs, compound at 0.1 µM, sheet All Tox data
[10] = read-out: 1 µM (% DMSO), alamarBlue viability of expanded OPCs, compound at 1 µM, sheet All Tox data
[11] = read-out: 10 µM (% DMSO), alamarBlue viability of expanded OPCs, compound at 10 µM, sheet All Tox data
[12] = test compound at 0.08 uM, NCC library screen, sheet "All OLga data", relative to quetiapine, read-out: 0.08 uM (% Quet)
[13] = test compound at 0.4 uM, NCC library screen, sheet "All OLga data", relative to quetiapine, read-out: 0.4 uM (% Quet)
[14] = read-out: 0.1 µM (% DMSO), alamarBlue viability, NCC library compound at 0.1 µM, sheet "All Tox data"
[15] = read-out: 1 µM (% DMSO), alamarBlue viability, NCC library compound at 1 µM, sheet "All Tox data"
[16] = read-out: 10 µM (% DMSO), alamarBlue viability, NCC library compound at 10 µM, sheet "All Tox data"
[17] = 0.08 uM test compound, relative to quetiapine, sheet "All OLga data", read-out: OL differentiation, 0.08 uM (% Quet)
[18] = 0.4 uM test compound, relative to quetiapine, sheet "All OLga data", read-out: OL differentiation, 0.4 uM (% Quet)

Row | Structure (SMILES) | activation at 2 µM [1, 7] [%] | activation at 10 µM [1, 8] [%] | viability at 0.1 µM (expanded OPCs; [9]) [%] | viability at 1 µM (expanded OPCs; [10]) [%] | viability at 10 µM (expanded OPCs; [11]) [%] | viability at 0.1 µM (expanded OPCs; [14]) [%] | viability at 1 µM (expanded OPCs; [15]) [%] | viability at 10 µM (expanded OPCs; [16]) [%] | also measured
1 | NNC(=O)c1ccncc1 [Isoniazid] | – | – | – | – | – | – | – | – | activation at 2 µM [1, 2]: -8.7%; activation at 10 µM [1, 3]: 3.1%; 0.1 µM (% DMSO) (expanded OPCs; [4]): 98.2 % DMSO; 1 µM (% DMSO) (expanded OPCs; [5]): 98.4 % DMSO; 10 µM (% DMSO) (expanded OPCs; [6]): 66.3 % DMSO
2 | COc1ccc2nc([S@@+]([O-])Cc3ncc(C)c(OC)c3C)[nH]c2c1 [Esomeprazole] | 12.7 | -23.8 | 85.5 | 90 | 95.3 | – | – | – | –
3 | CCOC(=O)C1=C(COCCN)NC(C)=C(C(=O)OC)C1c1ccccc1Cl (centres unmarked) [Amlodipine] | – | – | – | – | – | 69.7 | 22.7 | 8.6 | activation at 0.08 µM [1, 12]: -17.1%; activation at 0.4 µM [1, 13]: -39.6%
4 | CN(CCO)CC(O)Cn1cnc2c1c(=O)n(C)c(=O)n2C (centres unmarked) [Jupal] | – | – | – | – | – | – | – | – | 2 uM (% Quet) ([1]; test compound at 2 uM, NCC library screen, sheet "All OLga data", relative to quetiapine): 0.8 % Quet; 10 uM (% Quet) ([1]; test compound at 10 uM, NCC library screen, sheet "All OLga data", relative to quetiapine): 6.5 % Quet; 0.1 µM (% DMSO) (expanded OPCs; alamarBlue viability, NCC library compound at 0.1 µM, sheet "All Tox data"): 92.2 % DMSO; 1 µM (% DMSO) (expanded OPCs; alamarBlue viability, NCC library compound at 1 µM, sheet "All Tox data"): 91.0 % DMSO; 10 µM (% DMSO) (expanded OPCs; alamarBlue viability, NCC library compound at 10 µM, sheet "All Tox data"): 92.4 % DMSO
5 | Clc1ccc2c(c1)CCc1cccnc1C2=C1CCNCC1 [Desloratadine] | – | – | – | – | – | 61 | 29 | 10.5 | activation at 0.08 µM [1, 12]: -28%; activation at 0.4 µM [1, 13]: -84.8%
6 | COC(=O)C1=C(C)NC(C)=C(C(=O)OCC(C)C)C1c1ccccc1[N+](=O)[O-] (centres unmarked) [Nisoldipine] | – | – | 94.2 | 11.9 | 11.4 | – | – | – | activation at 0.08 µM [1, 17]: -23.7%; activation at 0.4 µM [1, 18]: -133%
7 | CCC1=C[C@@H]2CN(C1)Cc1c([nH]c3ccccc13)[C@@](C(=O)OC)(c1cc3c(cc1OC)N(C)[C@H]1[C@@](O)(C(=O)OC)[C@H](OC(C)=O)[C@]4(CC)C=CCN5CC[C@]31[C@@H]54)C2 [Vinorelbine] | – | – | – | – | – | 56.8 | 34.4 | 11.1 | activation at 0.08 µM [1, 17]: -20.7%; activation at 0.4 µM [1, 18]: -107%
8 | CCN(CC)CCOC(=O)c1ccc(N)cc1 [Procaine] | – | – | – | – | – | 121 | 145 | 146 | activation at 2 µM [1, 2]: -5.2%; activation at 10 µM [1, 3]: 7.7%
9 | COc1ccccc1OCC(O)CN1CCN(CC(=O)Nc2c(C)cccc2C)CC1 (centres unmarked) [Ranolazine] | 11.6 | -35.3 | 99.2 | 92.2 | 95.9 | – | – | – | –
10 | CCOC(=O)c1cncn1[C@H](C)c1ccccc1 [Etomidate] | – | – | – | – | – | 101 | 87.4 | 83 | activation at 2 µM ([1]; test compound at 2 uM, MBP expression relative to quetiapine, NCC library screen, sheet "All OLga data", read-out: 2 uM (% Quet)): 10.1%; activation at 2 µM [1, 2]: -2.5%; activation at 10 µM ([1]; test compound at 10 uM, MBP expression relative to quetiapine, NCC library screen, sheet "All OLga data", read-out: 10 uM (% Quet)): -7.1%; activation at 10 µM [1, 3]: -8.3%; 0.1 µM (% DMSO) (expanded OPCs; [4]): 89.9 % DMSO; 1 µM (% DMSO) (expanded OPCs; [5]): 87.4 % DMSO; 10 µM (% DMSO) (expanded OPCs; [6]): 88.3 % DMSO
11 | Cl.Cl.O=C(O)COCCN1CCN(C(c2ccccc2)c2ccc(Cl)cc2)CC1 (centres unmarked) [Virlix] | – | – | – | – | – | – | – | – | 2 uM (% Quet) ([1]; test compound at 2 uM, MBP expression relative to quetiapine, NCC library screen, sheet "All OLga data"): 3.4 % Quet; 10 uM (% Quet) ([1]; test compound at 10 uM, MBP expression relative to quetiapine, NCC library screen, sheet "All OLga data"): -0.36 % Quet; 0.1 µM (% DMSO) (expanded OPCs): 98.3 % DMSO; 1 µM (% DMSO) (expanded OPCs): 92.7 % DMSO; 10 µM (% DMSO) (expanded OPCs): 81.0 % DMSO
12 | C[C@@H]1CN(CCCn2c3ccccc3c3ccccc32)C[C@H](C)N1 [Rimcazole] | – | – | – | – | – | 61.7 | 33.6 | 9.5 | activation at 0.08 µM [1, 12]: -5.2%; activation at 0.4 µM [1, 13]: 23.1%
13 | Cc1cnc(C(=O)NCCc2ccc(S(=O)(=O)NC(=O)NC3CCCCC3)cc2)cn1 [Glipizide] | – | – | – | – | – | – | – | – | activation at 2 µM [1, 2]: 6.4%; activation at 10 µM [1, 3]: 8.4%; 0.1 µM (% DMSO) (expanded OPCs; [4]): 88.0 % DMSO; 1 µM (% DMSO) (expanded OPCs; [5]): 86.3 % DMSO; 10 µM (% DMSO) (expanded OPCs; [6]): 83.0 % DMSO
14 | CC[N+](C)(CC)CCOC(=O)C(O)(c1ccccc1)C1CCCCC1 (centres unmarked) [Oxyphenonium] | – | – | – | – | – | 92.5 | 97.2 | 94.9 | activation at 2 µM [1, 2]: -6.1%; activation at 10 µM [1, 3]: 36.4%
15 | CN(C)CCN(Cc1ccccc1)c1ccccn1 [Tripelennamine] | 8.2 | 31.1 | 82.9 | 86.1 | 80.7 | – | – | – | –
16 | NC(=O)C[S+]([O-])C(c1ccccc1)c1ccccc1 (centres unmarked) [Modafinil] | 15.5 | -30.2 | 105 | 94.6 | 99.6 | – | – | – | –
17 | CNCC[C@H](Oc1cccc2ccccc12)c1cccs1 [Duloxetine] | – | – | – | – | – | – | – | – | activation at 0.08 µM ([1]; read-out: 0.08 uM (% Quet)): -5.1%; activation at 0.4 µM ([1]; read-out: 0.4 uM (% Quet)): -12.9%; activation at 0.08 µM ([1]; read-out: OL differentiation, 0.08 uM (% Quet)): 18.3%; activation at 0.4 µM ([1]; read-out: OL differentiation, 0.4 uM (% Quet)): -7.6%; 0.1 µM (% DMSO) (expanded OPCs): 56.7 % DMSO and 82.6 % DMSO; 1 µM (% DMSO) (expanded OPCs): 45.5 % DMSO; 10 µM (% DMSO) (expanded OPCs): 12.6 % DMSO; viability at 1 µM (expanded OPCs; read-out: 1 µM (% DMSO)): 30.3%; viability at 10 µM (expanded OPCs; read-out: 10 µM (% DMSO)): 9.7%
18 | CC(=O)NC[C@H]1CN(c2ccc(N3CCOCC3)c(F)c2)C(=O)O1 [linezolid] | 4.3 | 7.1 | – | – | – | 95.7 | 94.1 | 94.7 | –
19 | CC(C)NCC(O)c1ccc(NS(C)(=O)=O)cc1 (centres unmarked) [Sotalol] | -13.4 | -22.5 | 96.2 | 89.5 | 107 | – | – | – | –

Source: article PMC5011342, “A high throughput drug screening assay to identify compounds that promote oligodendrocyte differentiation using acutely dissociated and purified oligodendrocyte precursor cells” (BMC Research Notes, 2016)
